Assay results taken from patent US10202380B2, “Pesticidally active tetracyclic derivatives with sulfur containing substituents” (Syngenta Participations AG, priority 2015, dated 2019).

Legend:
Format in all cases: in vivo
Euschistus heros = Euschistus heros (Neotropical Brown Stink Bug); details: in Glycine max, 120 h, read-out: effect in at least one of the two categories (mortality or growth inhibition)
Protocol: Soybean leaves on agar in 24-well microtiter plates were sprayed with aqueous test solutions prepared from 10,000 ppm DMSO stock solutions. After drying the leaves were infested with N2 nymphs. The samples were assessed for mortality and growth inhibition in comparison to untreated samples 5 days after infestation.

Diabrotica balteata = Diabrotica balteata (Corn Root Worm); details: 96 h, read-out: effect in at least one of the two categories (mortality or growth inhibition)
Protocol: Maize sprouts placed onto an agar layer in 24-well microtiter plates were treated with aqueous test solutions prepared from 10,000 ppm DMSO stock solutions by spraying. After drying, the plates were infested with L2 larvae (6 to 10 per well). The samples were assessed for mortality and growth inhibition in comparison to untreated samples 4 days after infestation.

Plutella xylostella = Plutella xylostella (Diamond Back Moth); details: 120 h, read-out: effect in at least one of the two categories (mortality or growth inhibition)
Protocol: 24-well microtiter plates with artificial diet were treated with aqueous test solutions prepared from 10,000 ppm DMSO stock solutions by pipetting. After drying, the plates were infested with L2 larvae (10 to 15 per well). The samples were assessed for mortality and growth inhibition in comparison to untreated samples 5 days after infestation.

Myzus persicae = Myzus persicae (Green Peach Aphid): Feeding/Contact Activity; details: foliar, 144 h
Protocol: Sunflower leaf discs were placed onto agar in a 24-well microtiter plate and sprayed with aqueous test solutions prepared from 10,000 ppm DMSO stock solutions. After drying, the leaf discs were infested with an aphid population of mixed ages. The samples were assessed for mortality 6 days after infestation.

Spodoptera littoralis [1] = experiment: Spodoptera littoralis (Egyptian Cotton Leaf Worm), sprayed cotton leaf discs; details: foliar, 72 h, read-out: control (mortality, anti-feedant effect, growth inhibition)
Protocol: Cotton leaf discs were placed onto agar in 24-well microtiter plates and sprayed with aqueous test solutions prepared from 10,000 ppm DMSO stock solutions. After drying the leaf discs were infested with five L1 larvae. The samples were assessed for mortality, anti-feeding effect, and growth inhibition in comparison to untreated samples 3 days after infestation. Control of Spodoptera littoralis by a test sample is given when at least one of the categories mortality, anti-feedant effect, and growth inhibition is higher than the untreated sample.

Spodoptera littoralis [2] = experiment: Spodoptera littoralis (Egyptian Cotton Leaf Worm), compound in agar absorbed by lettuce roots; details: 144 h, read-out: effect in at least one of the three categories (mortality, anti-feeding, or growth inhibition)
Protocol: Test compounds were applied by pipette from 10,000 ppm DMSO stock solutions into 24-well plates and mixed with agar. Lettuce seeds were placed onto the agar and the multi well plate was dosed by another plate which contained also agar. After 7 days the compound was absorbed by the roots and the lettuce grew into the lid plate. The lettuce leaves were then cut off into the lid plate. Spodoptera eggs were pipetted through a plastic stencil onto a humid gel blotting paper and the lid plate was closed with it. The samples were assessed for mortality, anti-feedant effect and growth inhibition in comparison to untreated samples 6 days after infestation.

CCSc1c(-c2nc3cc(C(F)(F)F)n(CC)c(=O)c3n2C)sc2ccccc12 [Compound A1, 5-ethyl-2-(3-ethylsulfanylbenzothiophen-2-yl)-3-methyl-6-(trifluoromethyl)imidazo[4,5-c]pyridin-4-one]
≥ 80%: percent control (mortality or growth inhibition) at 200 ppm (Euschistus heros) | percent control (mortality or growth inhibition) at 200 ppm (Diabrotica balteata) | percent control (mortality or growth inhibition) at 200 ppm (Plutella xylostella) | mortality at 200 ppm (Myzus persicae)

CCn1c(C(F)(F)F)cc2nc(-c3sc4ccccc4c3S(=O)(=O)CC)n(C)c2c1=O [Compound A2, 5-ethyl-2-(3-ethylsulfonylbenzothiophen-2-yl)-3-methyl-6-(trifluoromethyl)imidazo[4,5-c] pyridin-4-one]
≥ 80%: percent control (mortality or growth inhibition) at 200 ppm (Euschistus heros) | percent control (mortality or growth inhibition) at 200 ppm (Diabrotica balteata) | percent control (mortality or growth inhibition) at 200 ppm (Plutella xylostella) | mortality at 200 ppm (Spodoptera littoralis [1]) | percent control (mortality, anti-feedant effect or growth inhibition) at 12.5 ppm (Spodoptera littoralis [2]) | mortality at 200 ppm (Myzus persicae)
